In patent publication US20060142287A1, “Use of a combination of dppe with other chemotherapeutic agents for the treatment of breast cancer” (priority 2002, published 2006):

System: patients with metastatic and/or recurrent breast cancer
Test: Phase III clinical trial of DPPE/doxorubicin versus doxorubicin alone, overall survival
Type: in vivo, human
Method: In the treatment of stage I or II breast cancer, the diphenyl compound preferably is used in an amount of about 3 to about 10 mg/kg of patient, administered intravenously over a period of about 30 to about 90 minutes prior to administration of the chemotherapeutic agent(s) and continuing for the period of administration of the chemotherapeutic agent(s). In the specific Phase III clinical trial described herein conducted on patients with metastatic and/or recurrent breast cancer, there was employed 5.3 mg/kg of DPPE in the form of the base (equivalent to 6 mg/kg of DPPE in the form of its hydrochloride), administered intravenously as an aqueous solution thereof over 80 minutes, with the last twenty minutes being accompanied by infusion of the specific chemotherapeutic agent.
The chemotherapy agent active in breast cancer which is employed herein preferably is used in a total amount of about 50 to about 75 mg/M^2 of patient for doxorubicin or epirubicin, about 175 to about 225 mg/M^2 for Taxol and about 75 to about 100 mg/M^2 for Taxotere. In the specific Phase III clinical trial described herein conducted on patients with metastatic and/or recurrent breast cancer, there was employed 60 mg/M^2 of doxorubicin administered over the last 20 minutes of infusion of the DPPE solution.
Patients were treated with doxorubicin (DOX) alone or a combination of doxorubicin and DPPE. […]
The survival time for patients was determined for those patients with metastatic breast cancer receiving no prior chemotherapy treatment in relation to those who had received prior chemotherapy treatment, and for patients that had received no previous treatment type (namely, chemotherapy, radiotherapy and/or hormone treatment) and those who had received previous treatment. The survival times were determined for patients receiving the DPPE/DOX combination and DOX alone.

SMILES: COc1cccc2c1C(=O)c1c(O)c3c(c(O)c1C2=O)C[C@@](O)(C(=O)CO)C[C@@H]3O[C@H]1C[C@H](N)[C@H](O)[C@H](C)O1 [DOX, doxorubicin]
- median overall survival (patients with metastatic disease who had estrogen receptor-negative tumors, FIG. 3): 9.3 months
- median overall survival (patients with metastatic disease who had no previous chemotherapy, DPPE 5.3 mg/kg iv over 80 min, doxorubicin 60 mg/M^2 over last 20 min, FIG. 1): 16.2 months
- median overall survival (patients with metastatic disease who had no previous treatment (chemotherapy, radiotherapy and/or hormone treatment), FIG. 2): 15 months
